In patent US10253002B2, “Compounds and methods of treating infections” (Neoculi Pty Ltd., priority 2013, dated 2019):
Values after ≈ are worked out from the molar mass of the structure shown. Values joined by “and” are separate entries in the source; they are usually repeats but may differ in a detail not shown here. Equal values may be shown once.

Legend:
Test in all cases: Broth microdilution MIC, Example 7 (NCL812 and analogues)
[1] = system: VRE; type: cell-based, Enterococcus spp.; settings: for activity against VRE among analogues: MIC testing, two VRE strains
In short: (§1)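 MICs in μg/ml were read as growth inhibition by eye, checked at 600 nm absorbance against drug-free wells, following CLSI broth microdilution. Strains: two MRSA, two VRE; duplicates, repeated once more when results diverged beyond one dilution step.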

[2] = system: Escherichia coli; type: cell-based; settings: 24 hours
[3] = system: MRSA; type: cell-based, Staphylococcus aureus
In short: as §1

[4] = system: Pseudomonas aeruginosa; type: cell-based; settings: 24 hours
[5] = VRE 1, 24 hours, duplicate lines per compound
[6] = VRE 2, 24 hours, duplicate lines per compound
[7] = E. coli, duplicate lines per compound
[8] = MRSA 1, 24 hours, duplicate lines per compound
[9] = MRSA 2, 24 hours, duplicate lines per compound
[10] = P. aeruginosa, duplicate lines per compound
[11] = isolate VRE 1, 24 hours, 1st and 2nd replicate rows
[12] = isolate VRE 2, 24 hours, 1st and 2nd replicate rows
[13] = isolate MRSA 1, 24 hours, 1st and 2nd replicate rows
[14] = isolate MRSA 2, 24 hours, 1st and 2nd replicate rows

Compound | MIC (μg/ml) at 24 hours, VRE 1 [1, 5] | MIC (μg/ml) at 24 hours, VRE 2 [1, 6] | MIC (μg/ml) at 24 hours, E. coli [2, 7] | MIC (μg/ml) at 24 hours, MRSA 1 [3, 8] | MIC (μg/ml) at 24 hours, MRSA 2 [3, 9] | MIC (μg/ml) at 24 hours, P. aeruginosa [4, 10] | also measured
Cl.N=C(N/N=C/c1ccc(O)cc1O)N/N=C/c1ccc(O)cc1O [NCL103] | >128 µg/mL | >128 µg/mL | >128 µg/mL | >128 µg/mL | >128 µg/mL | >128 µg/mL | –
Cl.N=C(N/N=C/c1ccc(Cl)cc1)N/N=C/c1ccc(C(F)(F)F)cc1 [NCL077] | >128 µg/mL | >128 µg/mL | >128 µg/mL | >128 µg/mL | >128 µg/mL | >128 µg/mL | –
Nc1nc(N/N=C/c2ccc(C(F)(F)F)cc2)nc(N/N=C/c2ccc(C(F)(F)F)cc2)n1 [NCL210] | – | – | – | – | – | – | activity against VRE among analogues [1]: greatest activity; MIC (μg/ml) at 24 hours, VRE 1 ([1]; VRE 1, 24 hours): 128 µg/mL (≈ 273 µM); MIC (μg/ml) at 24 hours, VRE 2 ([1]; VRE 2, 24 hours): 32 µg/mL and 64 µg/mL; MIC (μg/ml) at 24 hours, E. coli ([2]; E. coli): >128 µg/mL; MIC (μg/ml) at 24 hours, MRSA 1 ([3]; MRSA 1, 24 hours): >128 µg/mL; MIC (μg/ml) at 24 hours, MRSA 2 ([3]; MRSA 2, 24 hours): >128 µg/mL; MIC (μg/ml) at 24 hours, P. aeruginosa ([4]; P. aeruginosa): >128 µg/mL
Cl.N=C(N)N/N=C/c1ccccc1Cl [NCL015] | – | – | – | – | – | – | MIC (μg/ml) at 24 hours, VRE 1 [1, 11]: >128 µg/mL; MIC (μg/ml) at 24 hours, VRE 2 [1, 12]: 128 µg/mL; MIC (μg/ml) at 24 hours, E. coli ([2]; 1st and 2nd replicate rows): >128 µg/mL; MIC (μg/ml) at 24 hours, MRSA 1 [3, 13]: >128 µg/mL; MIC (μg/ml) at 24 hours, MRSA 2 [3, 14]: >128 µg/mL; MIC (μg/ml) at 24 hours, P. aeruginosa ([4]; 1st and 2nd replicate rows): >128 µg/mL
Cl.N#Cc1ccc(/C=N/NC(=N)N/N=C/c2ccc(Cl)cc2)cc1 [NCL087] | >128 µg/mL | >128 µg/mL | >128 µg/mL | >128 µg/mL | >128 µg/mL | >128 µg/mL | –
Cl.N=C(NN=Cc1ccc(O)c([N+](=O)[O-])c1)NN=Cc1ccc(O)c([N+](=O)[O-])c1 [NCL 122] | >128 µg/mL | >128 µg/mL | >128 µg/mL | >128 µg/mL | >128 µg/mL | >128 µg/mL | –
NC(=O)N/N=C/c1cccc(F)c1 [NCL057] | – | – | – | – | – | – | MIC (μg/ml) at 24 hours, VRE 1 [1, 11]: >128 µg/mL; MIC (μg/ml) at 24 hours, VRE 2 [1, 12]: >128 µg/mL; MIC (μg/ml) at 24 hours, E. coli ([2]; 1st and 2nd replicate rows): >128 µg/mL; MIC (μg/ml) at 24 hours, MRSA 1 [3, 13]: >128 µg/mL; MIC (μg/ml) at 24 hours, MRSA 2 [3, 14]: >128 µg/mL; MIC (μg/ml) at 24 hours, P. aeruginosa ([4]; 1st and 2nd replicate rows): >128 µg/mL
COc1cccc(/C=N/NC(=O)N/N=C/c2cccc(OC)c2)c1 [NCL010] | – | – | – | – | – | – | MIC (μg/ml) at 24 hours, VRE 1 [1, 11]: >128 µg/mL; MIC (μg/ml) at 24 hours, VRE 2 [1, 12]: >128 µg/mL; MIC (μg/ml) at 24 hours, E. coli ([2]; 1st and 2nd replicate rows): >128 µg/mL; MIC (μg/ml) at 24 hours, MRSA 1 [3, 13]: >128 µg/mL; MIC (μg/ml) at 24 hours, MRSA 2 [3, 14]: >128 µg/mL; MIC (μg/ml) at 24 hours, P. aeruginosa ([4]; 1st and 2nd replicate rows): >128 µg/mL
Cl.N=C(NN=Cc1ccc(C=CCC(=O)O)cc1)NN=Cc1ccc(C=CCC(=O)O)cc1 [NCL 148] | >128 µg/mL | >128 µg/mL | >128 µg/mL | >128 µg/mL | >128 µg/mL | >128 µg/mL | –
Clc1ccc(CNc2nnc(-c3ccc(Cl)cc3)[nH]2)cc1 [NCL092] | >128 µg/mL | >128 µg/mL | >128 µg/mL | >128 µg/mL | >128 µg/mL | >128 µg/mL | –
Cl.N=C(N/N=C/c1ccccc1Br)N/N=C/c1ccccc1Br [NCL 129] | >128 µg/mL | >128 µg/mL | >128 µg/mL | >128 µg/mL | >128 µg/mL | >128 µg/mL | –
Cl.N=C(NN=CC1CCCCC1)NN=CC1CCCCC1 [NCL094] | 64 µg/mL | 128 µg/mL | >128 µg/mL | 128 µg/mL | 128 µg/mL | >128 µg/mL | activity against VRE among analogues [1]: greatest activity; activity against MRSA among analogues ([3]; MIC testing, two MRSA strains): greatest activity
CC(C)c1ccc(/C=N/NC(=N)N/N=C/c2ccc(C(C)C)cc2)cc1.Cl [NCL 120] | 2 µg/mL | 8 µg/mL | >128 µg/mL | 8 µg/mL | 4 µg/mL and 8 µg/mL | >128 µg/mL | –
